Laboratory results from patent US20060034941A1, “Organ preconditioning, arrest, protection, preservation and recovery” (priority 2002, published 2006).
Read-outs that look alike come from different tables or passages of the source.

Columns and labels:
in vivo rabbit model = details: reduced MAP similar to CCPA; cited from earlier work
human NK(1) receptor = human NK(1) receptor (Homo sapiens, UniProt P25103); details: cited from earlier work
[1] = tested on: canine neutrophils stimulated by platelet activating factor; assay: In vitro superoxide anion generation by PAF-activated neutrophils; format: cell-based; details: PAF 100 nmol; 0.1 to 10 uM L, 0.1 to 100 uM ADO; synergy at 1 uM, 5 uM and 10 uM
Procedure: PMNs were isolated using the Ficoll-Pacque (Sigma Chemical, St. Louis, Mo.) technique. The cells were adjusted to ˜9×10^7 cells/ml. […] Superoxide anion (—O.2) production by neutrophils stimulated by platelet activating factor (100 nmol) were determined by measuring the superoxide dismutase-inhibitable reduction of ferricytochrome c to ferrocytochrome c spectrophotometrically at 550 nm using a V-Max Microtiter Plate Reader (Molecular Devices, Palo Alto, Calif.). […] Concentrations indicated are final concentrations in each cuvette.

[2] = i.v., cited from earlier work
[3] = tested on: A-V nodal and SA pacemakers; details: cited from earlier work

Sequence of human NK(1) receptor (P25103 whole entry): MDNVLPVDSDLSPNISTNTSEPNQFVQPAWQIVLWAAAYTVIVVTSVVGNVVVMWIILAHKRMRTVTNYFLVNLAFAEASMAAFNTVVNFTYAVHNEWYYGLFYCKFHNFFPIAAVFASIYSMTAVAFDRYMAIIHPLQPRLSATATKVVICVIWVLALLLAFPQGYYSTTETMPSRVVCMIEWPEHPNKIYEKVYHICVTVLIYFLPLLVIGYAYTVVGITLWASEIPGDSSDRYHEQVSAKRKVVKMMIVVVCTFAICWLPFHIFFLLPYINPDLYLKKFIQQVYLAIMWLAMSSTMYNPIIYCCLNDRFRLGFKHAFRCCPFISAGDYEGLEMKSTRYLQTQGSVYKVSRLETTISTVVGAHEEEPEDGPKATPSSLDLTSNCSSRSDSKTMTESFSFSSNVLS

SMILES	effect on infarct size (in vivo rabbit model)	superoxide anion generation [1]	also measured
CC(C)NCC(O)COc1ccc(CC(N)=O)cc1 (stereo not shown) [atenolol]	did not change infarct size	–	–
CCNC(=O)[C@H]1O[C@@H](n2cnc3c(N)ncnc32)[C@H](O)[C@@H]1O [NECA, 5′-N-ethyl-carboxamindoadenosine]	did not change infarct size	–	–
Cc1cccc(C)c1NC(=O)C[C@H]1CCN(C(=O)c2cc(C(F)(F)F)cc(C(F)(F)F)c2)[C@@H](Cc2ccccc2)C1.O=C(O)C[C@H](O)C(=O)O (relative stereo) [R116301, (2R-trans)-4-[1-[3,5-bis(trifluoromethyl)benzoyl]-2-(phenylmethyl)-4-piperidinyl]-N-(2,6-dimethylphenyl)-1-acetamide (S)-Hydroxybutanedioate]	–	–	Ki (human NK(1) receptor): 0.45 nM; selectivity toward NK(2) and NK(3) receptors (human NK(1) receptor): over 200 fold
CCN(CC)CC(=O)Nc1c(C)cccc1C [Lido-only, lidocaine]	–	reduce superoxide anion generation	maximum safe dose ([2]; with epinephrine): ~7 mg/kg; maximum safe dose ([2]; without epinephrine): approximately 4 mg/kg
Nc1ncnc2c1ncn2[C@@H]1O[C@H](CO)[C@@H](O)[C@H]1O [Ado-only, adenosine]	–	reduce superoxide anion generation	effectiveness in slowing the conductance of A-V nodal relative to SA pacemakers [3]: 30 times
CCCCC#Cc1nc(N)c2ncn([C@@H]3O[C@H](C(=O)NCC)[C@@H](O)[C@H]3O)c2n1 [2HE-NECA, 2-hexynyl-5′-N-ethyl-carboxamindoadenosine]	did not change infarct size	–	–
